Measured values as given in patent US20250120958A1, “Treatment of GM2 Gangliosidosis” (Azafaros B.V., priority 2022, published 2025).
Like-named read-outs stand apart in the source and are kept apart here.

How the values were obtained:
[1] = Stability of dosing formulation; type: physicochemical; settings: 0.01 mg/mL-2 mg/mL in purified water/citric acid/NaOH, storage 15-25° C.
Description: • 1. Introduction and preparation of vehicle control • 1.1. Read the method prior to proceeding with laboratory work • 1.2. Read Study Plan • 1.3. Ensure the work-station is clean and select the correct equipment, clean glassware etc. for the study. • 1.4. Formulate in ascending order of concentration. • 1.5. Start with control group—measure the required volume of purified water and magnetically stir. Whilst magnetically stirring, adjust pH to 3.5-2.5 using 1 M citric acid. Record volumes in raw data. • 1.6. Stir for a minimum of 30 minutes. Record stir times in raw data. • 1.7. Adjust the pH to 4.5-5.5 using 0.1 M NaOH. Record volumes in raw data. • 1.8. Stir for a minimum of 20 minutes using a magnetic stirrer. Record stir times in the raw data. • 1.9. Sample at this point if required. • 2. Test item formulations • 2.1. Weigh the required amount of test item: e.g., For a 0.9 mg/mL target concentration in 600 mL, weigh 540 mg. • 2.2. Add 70% of the final volume of purified water to the test item to obtain a thin suspension (may be difficult to see at these low concentrations): e.g., 420 mL • 2.3. Add not more than 3 molar equivalents of citric acid, and record the pH which should be pH 3.5-2.5, e.g., 3.74 mL of 1 M citric acid solution in water. • Note: The suspension should clear up as an indication for dissolution of the test item. • 2.4. […]

[2] = Brain pharmacokinetics after 16 weeks of once daily administration (LC-MS/MS); type: in vivo, mouse
Protocol: (§1) Brain samples were collected, rinsed with saline and blotted dry. Samples were fixed in 4% PFA for immunohistochemical analyses; frozen and kept for gene expression and molecular biology analyses; and used frozen for LC-MS/MS analysis.
Unless otherwise stated, the methodology and sample collection were performed as in Example 2. […] Twenty-four hours after the last dose the animals were euthanized at varying time-points and AZ-3102 was measured by LC-MS/MS. […] However, exposure (AUC0-24) proportionality was well conserved between doses: 6 versus 3 (1.8-fold); 3 and 1.5 (2.0-fold) and 1.5 and 0.5 (2.4-fold). […] The reduced clearance in the brain versus plasma has also been observed in prior studies with rats and dogs (internal data). […] The plasma concentration at all doses was approximately 1 ng/mL after 24 h and in the brain the concentration was greater than 20 ng/g tissue.

[3] = Plasma pharmacokinetics after 16 weeks of once daily administration (LC-MS/MS); type: in vivo, mouse
Protocol: At the end of the defined treatment period, mice were humanely euthanized by transcardial perfusion with Ringer solution after C02 asphyxiation. […]. Before perfusion, blood samples were collected via cardiac puncture into K2EDTA tubes and stored on wet ice. Whole blood was processed to plasma by centrifugation (3000 g for 10 minutes at 5° C.) within 30 min of collection and stored at −75° C.
Unless otherwise stated, the methodology and sample collection were performed as in Example 2.

[4] = system: GFAP (Glial fibrillary acidic protein); test: GFAP immunofluorescence in brain sections; type: in vivo, mouse; settings: for GFAP staining, treated vs vehicle: midsections
Description: as §1
GFAP (Glial fibrillary acidic protein) a class-III intermediate filament protein, is a cell-specific marker that, during the development of the central nervous system, distinguishes astrocytes from other glial cells. Intermediate filaments form networks that provide support and strength to cells. Several molecules of glial fibrillary acidic protein bind together to form the type of intermediate filament found in astroglial cells. Astroglial cells support and nourish cells in the brain and spinal cord. If brain or spinal cord cells are injured through trauma or disease, astroglial cells react by rapidly producing more glial fibrillary acidic protein.

[5] = system: Sandhoff mouse model (Hexb (−/−)); test: Survival study in Sandhoff mouse model; type: in vivo; settings: Hexb (−/−) mice
Description: (strain: B6; 129S4-Hexbtm1Rlp/J). The mouse line was maintained by crossing homozygous −/− males with heterozygous females (generating litters with 50%−/− and 50%+/−) under specific pathogen-free conditions. All mice were housed in individual, ventilated cages (IVCs) with 12-h light/dark cycles with food and water ad libitum. Young-adult mice of the same genetic C57BL/6 background were from Jackson Laboratories. Breeding of Hexb mutants will target needs of the “Long-term” cohorts first, followed by the “16-week” biomarker study.
Cohort 1: There were a total of 6 dose groups and 2 vehicle groups using both Hexb+/− and Hexb−/− animals. […] Dosing occurred daily from day 30 to day 170, unless the animal was prematurely euthanized per protocol.
A subsequent study to explore lower doses was also performed (in the same manner as in Example 2) in which doses of 0.02, 0.06, 0.2 and 0.5 mg/kg/day were used. […] It is unclear why the 0.06 mg/kg/day had less survival as formulations were checked and confirmed accurate dosing (internal data).

## OC[C@H]1[C@@H](O)[C@H](O)[C@@H](O)CN1CCCCCOCc1ccc(-c2ccccc2)c(F)c1 [AZ-3102]
[1]
  Stability of formulation: 8 days
[2]; 24 h period, most dose groups
  concentration profile in brain: sustained with very little decrease
[2]; Hexb (−/−) and Hexb (+/−), mouse, brain, oral, all doses
  concentration at 24 h: > 20 ng/g
[3]; 6 vs 0.5 mg/kg/day
  Cmax difference between lowest and highest dose: approximately 7 fold
[3]; Hexb (−/−) (Sandhoff mice), mouse, oral, plasma, 0.5 to 6 mg/kg/day, steady state, read-out: Cmax, range over doses
  Cmax: 0.1 to 0.674 µg/mL
[3]; Hexb (−/−) (Sandhoff mice), mouse, oral, plasma, 0.5 to 6 mg/kg/day, steady state, read-out: mean AUC0-24, range over doses
  AUC(0-t): 0.417 to 3.61 µg·h/mL
[3]; Hexb (−/−) (Sandhoff model), mouse, plasma, po, Sand A, Hexb (−/−), 6 mg/kg/day, 16 weeks once daily, read-out: AUC0-24
  AUC(0-t): 3.61 µg·h/mL
[3]; Hexb (−/−) (Sandhoff model), mouse, plasma, po, Sand A, Hexb (−/−), 6 mg/kg/day, 16 weeks once daily, read-out: Cmax
  Cmax: 0.674 µg/mL
[3]; Hexb (−/−) (Sandhoff model), mouse, plasma, po, Sand B, Hexb (−/−), 3 mg/kg/day, 16 weeks once daily, read-out: AUC0-24
  AUC(0-t): 1.98 µg·h/mL
[3]; Hexb (−/−) (Sandhoff model), mouse, plasma, po, Sand B, Hexb (−/−), 3 mg/kg/day, 16 weeks once daily, read-out: Cmax
  Cmax: 0.446 µg/mL
[3]; Hexb (−/−) (Sandhoff model), mouse, plasma, po, Sand D, Hexb (−/−), 1.5 mg/kg/day, 16 weeks once daily, read-out: AUC0-24
  AUC(0-t): 0.987 µg·h/mL
[3]; Hexb (−/−) (Sandhoff model), mouse, plasma, po, Sand D, Hexb (−/−), 1.5 mg/kg/day, 16 weeks once daily, read-out: Cmax
  Cmax: 0.159 µg/mL
[3]; Hexb (−/−) (Sandhoff model), mouse, plasma, po, Sand E, Hexb (−/−), 0.5 mg/kg/day, 16 weeks once daily, read-out: AUC0-24
  AUC(0-t): 0.417 µg·h/mL
[3]; Hexb (−/−) (Sandhoff model), mouse, plasma, po, Sand E, Hexb (−/−), 0.5 mg/kg/day, 16 weeks once daily, read-out: Cmax
  Cmax: 0.1 µg/mL
[3]; Hexb (−/−) and Hexb (+/−), mouse, plasma, oral, all doses
  concentration at 24 h: ~0.001 µg/mL
[3]; Sand E, Hexb (−/−), 0.5 mg/kg/day
  Cmax/D: 200 (ng/mL)/(mg/kg)
[3]; mouse, plasma, po, Het B, Hexb (+/−), 3 mg/kg/day, 16 weeks once daily, read-out: AUC0-24
  AUC(0-t): 1.96 µg·h/mL
[3]; mouse, plasma, po, Het B, Hexb (+/−), 3 mg/kg/day, 16 weeks once daily, read-out: Cmax
  Cmax: 0.37 µg/mL
[4]; caudal section of the brain, Het (Hexb+/−), Female
  GFAP immunofluorescence, Mean: 508.99
[4]; caudal section of the brain, Het (Hexb+/−), Male
  GFAP immunofluorescence, Mean: 425.10
[4]; caudal section of the brain, KO (Hexb−/−), Female
  GFAP immunofluorescence, Mean: 1656.84
[4]; caudal section of the brain, KO (Hexb−/−), Male
  GFAP immunofluorescence, Mean: 1762.82
[4]; midsection of the brain, Het (Hexb+/−), Female
  GFAP immunofluorescence, Mean: 298.81
[4]; midsection of the brain, Het (Hexb+/−), Male
  GFAP immunofluorescence, Mean: 395.99
[4]; midsection of the brain, KO (Hexb−/−), Female
  GFAP immunofluorescence, Mean: 747.75
[4]; midsection of the brain, KO (Hexb−/−), Male
  GFAP immunofluorescence, Mean: 866.38
[4]; Hexb−/− females
  GFAP staining, treated vs vehicle: statistical decrease
[4]; Hexb−/− males
  GFAP staining, treated vs vehicle: trend to having a decrease
[5]; 0.02 mg/kg/day
  median survival: 120 days
[5]; 0.06 mg/kg/day
  median survival: 116 days
[5]; 0.2 mg/kg/day
  median survival: 133 days
[5]; 0.5 mg/kg/day
  median survival: 138 days
[5]; 0.5-6 mg/kg/day oral gavage daily, vs vehicle (115 days)
  increase of average median survival: 26 days
[5]; once daily gavage
  minimal effective dose on survival: 0.2 mg/kg/day
[5]; treated vs vehicle/untreated
  increase in survival / life expectancy: 22%
